Test results as given in patent US20240293558A1, “KRAS INHIBITOR CONJUGATES” (Erasca, Inc., priority 2021, published 2024).
pIC50: −log10 of the molar value. Where two headings read alike, the source gives them in different places.

What was measured:
[1] = target: T1, KRas G12D fused to HiBiT peptide (Homo sapiens, UniProt P01116, G12D); assay: ASPC-1 HiBit assay to determine G12D degradation; format: cell-based; details: AsPC-1 HiBiT cells, 24-hour incubation; read-out: ASPC-1 HiBit DC50 (C)
T1 construct: endogenous in cells; host or cells: AsPC-1 HiBiT knock-in single clone (Cas9 RNP + ssODN)
T1 sequence (P01116 1-188 isoform P01116-2 G12D): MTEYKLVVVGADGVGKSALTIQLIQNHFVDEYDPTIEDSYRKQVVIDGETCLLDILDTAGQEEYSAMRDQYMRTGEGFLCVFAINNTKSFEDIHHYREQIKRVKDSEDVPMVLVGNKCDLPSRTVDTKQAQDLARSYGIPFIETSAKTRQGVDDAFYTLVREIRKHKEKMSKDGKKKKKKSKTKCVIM
How it was run: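 Homozygous AsPC-1 clone with N-terminal HiBiT knock-in on endogenous KRas G12D, 24 h compound exposure, top dose 10 μM, 3-fold, 10 points, 1% DMSO. Lytic HiBiT luminescence normalised to DMSO and inhibitor controls gives % degradation; DC50 from 4-parameter fit after hook-effect points removed.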

KRAS G12D = KRAS G12D (Homo sapiens, UniProt P01116, G12D); assay: In-vitro RAS-RAF binding assay (RRB), HTRF/FRET; format: biochemical; parameters: Biotinylated KRAS protein amino acids 1-169 (produced at Erasca); made in house; details: read-out: Inhibition of RAS-RAF Binding (in-vitro) KRAS (G12D) IC50
KRAS G12D, sequence (P01116 1-169 isoform P01116-2 G12D): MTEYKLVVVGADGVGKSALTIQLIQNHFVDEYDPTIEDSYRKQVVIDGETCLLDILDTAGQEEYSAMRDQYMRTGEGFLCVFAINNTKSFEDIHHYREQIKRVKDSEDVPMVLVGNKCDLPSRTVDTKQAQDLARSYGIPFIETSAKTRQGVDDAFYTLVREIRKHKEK
How it was run: (§1)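 Compounds preincubated with terbium-labelled biotinylated KRAS (aa 1-169, 30 nM) before 60 min SOS1-catalysed exchange to GTPgS. Binding of the d2-labelled cRAF RBD (30 nM) is read as FRET at equilibrium in duplicate. Buffer: 50 mM HEPES pH 7.5, 100 mM NaCl, 1 mM MgCl2, 1 mM DTT.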

KRAS (WT) = target: T2, KRAS (WT) (Homo sapiens, UniProt P01116); assay: In-vitro RAS-RAF binding assay (RRB), HTRF/FRET; format: biochemical; details: read-out: Inhibition of RAS-RAF Binding (in-vitro) KRAS (WT) IC50
T2 construct: Biotinylated KRAS protein amino acids 1-169 (produced at Erasca); made in house
T2 sequence (P01116 1-169 isoform P01116-2): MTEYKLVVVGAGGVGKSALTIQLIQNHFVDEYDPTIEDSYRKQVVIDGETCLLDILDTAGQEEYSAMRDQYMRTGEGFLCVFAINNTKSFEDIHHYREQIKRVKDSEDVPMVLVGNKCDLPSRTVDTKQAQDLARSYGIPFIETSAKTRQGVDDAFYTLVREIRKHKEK
How it was run: as §1

[2] = Table 2, average of multiple runs of each compound

Row | Structure (SMILES) | DC50 [1] | pIC50 (KRAS G12D; [2]) | pIC50 (KRAS (WT); [2]) | pIC50 (KRAS G12D; Table 1) | pIC50 (KRAS (WT); Table 1)
1 | CC(C)[C@@H](C(=O)N1C[C@H](O)C[C@H]1C(=O)N[C@@H](C)c1ccc(-c2c(F)cc(F)cc2F)cc1)c1cc(OCC2CCN(CCOc3nc(N4CC5CCC(C4)N5)c4cc(C(F)(F)F)c(-c5ccc(F)c6sc(N)c(C#N)c56)c(F)c4n3)CC2)no1 [Example 78, (2S,4R)-1-((2R)-2-(3-((1-(2-((7-(2-amino-3-cyano-7-fluorobenzo[b]thiophen-4-yl)-4-(3,8-diazabicyclo[3.2.1]octan-3-yl)-8-fluoro-6-(trifluoromethyl)quinazolin-2-yl)oxy)ethyl)piperidin-4-yl)methoxy)isoxazol-5-yl)-3-methylbutanoyl)-4-hydroxy-N-((S)-1-(2′,4′,6′-trifluoro-[1,1′-biphenyl]-4-yl)ethyl)pyrrolidine-2-carboxamide] | 294 nM | 7.59 | 5.78 | – | –
2 | C#Cc1c(F)ccc2cc(O)cc(-c3ncc4c(N5CC6CCC(C5)N6)nc(OCCN5CCC(COc6cc([C@H](C(=O)N7C[C@H](O)C[C@H]7C(=O)N[C@@H](C)c7ccc(-c8scnc8C)cc7)C(C)C)on6)CC5)nc4c3F)c12 [Example 60, (2S,4R)-1-((2R)-2-(3-((1-(2-((4-(3,8-diazabicyclo[3.2.1]octan-3-yl)-7-(8-ethynyl-7-fluoro-3-hydroxynaphthalen-1-yl)-8-fluoropyrido[4,3-d]pyrimidin-2-yl)oxy)ethyl)piperidin-4-yl)methoxy)isoxazol-5-yl)-3-methylbutanoyl)-4-hydroxy-N-((S)-1-(4-(4-methylthiazol-5-yl)phenyl)ethyl)pyrrolidine-2-carboxamide] | 108 nM | 8.02 | 6.72 | – | –
3 | C[C@H](NC(=O)[C@@H]1C[C@@H](O)CN1C(=O)[C@@H](NC(=O)CCOCCCN1CCC[C@H]1COc1nc(N2CC3CCC(C2)N3)c2cc(Cl)c(-c3ccc(F)c4sc(N)c(C#N)c34)c(F)c2n1)C(C)(C)C)c1ccc(-c2ccccc2Cl)cc1 [Example 96, (2S,4R)-1-((2S)-2-(3-(3-((2S)-2-((((7R)-7-(2-amino-3-cyano-7-fluorobenzo[b]thiophen-4-yl)-4-(3,8-diazabicyclo[3.2.1]octan-3-yl)-6-chloro-8-fluoroquinazolin-2-yl)oxy)methyl)pyrrolidin-1-yl)propoxy)propanamido)-3,3-dimethylbutanoyl)-N—((S)-1-(2′-chloro-[1,1′-biphenyl]-4-yl)ethyl)-4-hydroxypyrrolidine-2-carboxamide] | 75 nM | 8.04 | 6.81 | – | –

Continued by falling DC50 [1], values first:

Row | DC50 [1] | pIC50 (KRAS G12D; [2]) | pIC50 (KRAS (WT); [2]) | pIC50 (KRAS G12D; Table 1) | pIC50 (KRAS (WT); Table 1) | Structure (SMILES)
4 | 444 nM | 7.87 | 7.31 | 7.87 | 7.31 | C#Cc1c(F)ccc2cc(O)cc(-c3ncc4c(N5CC6CCC(C5)N6)nc(OC[C@@H]5CCCN5CCCOCCC(=O)N[C@H](C(=O)N5C[C@H](O)C[C@H]5C(=O)N[C@@H](C)c5ccc(-c6scnc6C)cc5)C(C)(C)C)nc4c3F)c12 [Example 13, (2S,4R)-1-[(2S)-2-[3-[3-[(2S)-2-[[4-(3,8-diazabicyclo[3.2.1]octan-3-yl)-7-(8-ethynyl-7-fluoro-3-hydroxy-1-naphthyl)-8-fluoro-pyrido[4,3-d]pyrimidin-2-yl]oxymethyl]pyrrolidin-1-yl]propoxy]propanoylamino]-3,3-dimethyl-butanoyl]-4-hydroxy-N-[(1S)-1-[4-(4-methylthiazol-5-yl)phenyl]ethyl]pyrrolidine-2-carboxamide]
5 | 264 nM | 7.80 | 5.79 | – | – | C#Cc1c(F)ccc2cc(O)cc(-c3ncc4c(N5CC6CCC(C5)N6)nc(OCCN5CCC6(CC5)CN(c5cc([C@H](C(=O)N7C[C@H](O)C[C@H]7C(=O)N[C@@H](C)c7ccc(-c8ccccc8Cl)cc7)C(C)C)on5)C6)nc4c3F)c12 [Example 99, (2S,4R)-1-((2R)-2-(3-(7-(2-((4-(3,8-diazabicyclo[3.2.1]octan-3-yl)-7-(8-ethynyl-7-fluoro-3-hydroxynaphthalen-1-yl)-8-fluoropyrido[4,3-d]pyrimidin-2-yl)oxy)ethyl)-2,7-diazaspiro[3.5]nonan-2-yl)isoxazol-5-yl)-3-methylbutanoyl)-N—((S)-1-(2′-chloro-[1,1′-biphenyl]-4-yl)ethyl)-4-hydroxypyrrolidine-2-carboxamide]
6 | 247 nM | 7.60 | 5.50 | – | – | CC(C)[C@@H](C(=O)N1C[C@H](O)C[C@H]1C(=O)N[C@@H](C)c1ccc(-c2c(F)cccc2F)cc1)c1cc(OCC2CCN(CCOc3nc(N4CC5CCC(C4)N5)c4cc(C(F)(F)F)c(-c5ccc(F)c6sc(N)c(C#N)c56)c(F)c4n3)CC2)no1 [Example 18, (2S,4R)-1-((2R)-2-(3-((1-(2-((7-(2-amino-3-cyano-7-fluorobenzo[b]thiophen-4-yl)-4-(3,8-diazabicyclo[3.2.1]octan-3-yl)-8-fluoro-6-(trifluoromethyl)quinazolin-2-yl)oxy)ethyl)piperidin-4-yl)methoxy)isoxazol-5-yl)-3-methylbutanoyl)-N—((S)-1-(2′,6′-difluoro-[1,1′-biphenyl]-4-yl)ethyl)-4-hydroxypyrrolidine-2-carboxamide]
7 | 23 nM | 8.09 | 7.64 | – | – | Cc1ncsc1-c1ccc([C@H](C)NC(=O)[C@@H]2C[C@@H](O)CN2C(=O)[C@@H](NC(=O)CCOCCCN2CCC[C@H]2COc2nc(N3CC4CCC(C3)N4)c3cc(C(F)(F)F)c(-c4ccc(F)c5sc(N)c(C#N)c45)c(F)c3n2)C(C)(C)C)cc1 [Example 91, (2S,4R)-1-((2S)-2-(3-(3-((2S)-2-((((7S)-7-(2-amino-3-cyano-7-fluorobenzo[b]thiophen-4-yl)-4-(3,8-diazabicyclo[3.2.1]octan-3-yl)-8-fluoro-6-(trifluoromethyl)quinazolin-2-yl)oxy)methyl)pyrrolidin-1-yl)propoxy)propanamido)-3,3-dimethylbutanoyl)-4-hydroxy-N—((S)-1-(4-(4-methylthiazol-5-yl)phenyl)ethyl)pyrrolidine-2-carboxamide]
